Source: patent publication US20240425483A1, “INDOLINES AS PROTAC COMPOUNDS” (NeoPhore Limited, priority 2021, published 2024)

Molecular target: T1, PMS2 protein (Homo sapiens, UniProt P54278)
T1 construct: host or cells: SW620 human colorectal carcinoma cells
T1 sequence (P54278 1-862): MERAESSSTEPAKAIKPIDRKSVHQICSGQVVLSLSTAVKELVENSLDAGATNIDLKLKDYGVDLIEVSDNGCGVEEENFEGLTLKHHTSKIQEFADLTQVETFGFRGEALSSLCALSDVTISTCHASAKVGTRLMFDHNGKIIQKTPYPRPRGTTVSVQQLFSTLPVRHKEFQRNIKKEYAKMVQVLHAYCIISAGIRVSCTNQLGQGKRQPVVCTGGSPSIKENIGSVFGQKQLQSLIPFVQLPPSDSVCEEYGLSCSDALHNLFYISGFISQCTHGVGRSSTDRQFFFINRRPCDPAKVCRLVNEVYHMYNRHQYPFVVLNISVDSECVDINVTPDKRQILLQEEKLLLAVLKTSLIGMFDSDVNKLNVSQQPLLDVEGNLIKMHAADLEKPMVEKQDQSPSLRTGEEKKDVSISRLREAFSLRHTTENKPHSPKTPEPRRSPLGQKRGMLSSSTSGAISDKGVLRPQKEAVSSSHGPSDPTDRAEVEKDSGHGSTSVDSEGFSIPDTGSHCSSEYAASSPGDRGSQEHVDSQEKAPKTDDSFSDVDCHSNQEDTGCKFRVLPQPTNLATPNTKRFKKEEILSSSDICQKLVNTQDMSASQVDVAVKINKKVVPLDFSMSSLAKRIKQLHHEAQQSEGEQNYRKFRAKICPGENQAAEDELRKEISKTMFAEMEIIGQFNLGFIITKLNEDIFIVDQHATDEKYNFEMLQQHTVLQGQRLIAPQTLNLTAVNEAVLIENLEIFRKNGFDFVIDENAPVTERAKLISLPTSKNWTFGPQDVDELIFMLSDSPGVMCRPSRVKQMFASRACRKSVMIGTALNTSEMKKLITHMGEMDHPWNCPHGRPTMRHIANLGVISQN
Assay: PROTAC screening in SW620 human colorectal carcinoma cells, PMS2 protein level by JESS Western blot
Format: cell-based
Settings: SW-620, 24 h, 1 uM compound, normalised to actin and DMSO control, Table A1
Experimental: PROTAC Screening Protocol Using SW620 Human Colorectal Carcinoma Cells
SVW620 cells (ATCC/[…]) were cultured in T75 Falcon flasks in culture media (F12/DMEM 1:1 media, 10% FCS, +L-G supplement). Cells were split twice a week, for a maximum of 6 weeks. Media was aspirated, and cells washed with 10 mL of sterile PBS. PBS was aspirated, and cells incubated with 1.5 mL TrypLE for up to 5 minutes at 37° C., 5% CO2. Once cells had detached, TrypLE was neutralised with 10 mL culture media and cells mixed 1:1 with Trypan blue and quantified using a Luna cell counter. Cells were then seeded into fresh T75 flasks with 1×10^6 cells and 10 mL culture media.
SW620 cells, cultured and counted as above, were used to seed 12 well plates at a density of 1.5×10^5 cells/well and incubated overnight at 37° C., 5% CO2. Test compounds were solubilized in DMSO to a stock concentration of 10 mM and serially diluted in DMSO and media to their test concentration; the final concentration of DMSO was 0.1% (v/v). Each concentration was tested in triplicate. SW620 cells were incubated with test compound for 24 hours at 37° C., 5% CO2. Media was aspirated from each well, and each well washed with 1 mL ice cold PBS. PBS was then aspirated, and 50 μL of cold lysis buffer (RIPA buffer supplemented with 1× protease inhibitors, Benzonase, MgCl) was added to each well; plates were then incubated on ice for 5 minutes. Cells were scraped using a pipette tip before being transferred to a fresh Eppendorf. Samples were spun at maximum speed in a benchtop centrifuge for 5 minutes at 4° C. and supernatant was then transferred to fresh tubes. Samples were stored at −80° C. until analysis.
Bicinchonininic acid (BCA) protein assay standards (2-0.125 mg/mL BSA) were prepared in advance. 6 μL of each standard was pipetted in duplicate into rows A and B of a 384-well assay plate. Test samples were diluted in lysis buffer (1:3-1:10) in a 384-well plate in duplicate. BCA Reagents were combined 50:1, Part A:Part B and 50 μL added to each well. Plates were incubated for 30 min at 37° C. in a plate incubator and read using a BCA protein 384 protocol on an EnSpire plate reader. Protein concentrations were calculated from a standard curve.
JESS Western Blot Protocol
Protein lysates were prepared using Protein Simple EZ standard pack reagents: 40 μL distilled H2O was added to a DTT tube (clear) and treated with 20 μL 10× sample buffer and 20 μL DTT to 5×MM tube (pink). 20 μL dH2O was added to biotinylated ladder tube (green).
Test samples were prepared by dilution to the required concentration (0.1 mg/mL) in 0.1× sample buffer. 1.25 μL 5× fluorescent master mix from the EZ standard pack was added to 5 μL sample for each lane to be loaded (e.g. 2.5 μL+10 μL if loading same sample into 2 wells). Samples were vortexed, briefly spun down and heated at 95° C. for 5 min in a PCR machine then vortexed again and briefly spun down before loading onto JESS cassettes (catalogue No: SM-W004) according to manufacturer's instructions (https://www.proteinsimple.com/technical_library.html?product=simplewestern&def_list=list). Protein expression was determined by the peak area of the target protein signal. Peak area of the target protein was normalised to peak area of the loading control (actin) and to DMSO control.

Row | Compound | remaining activity at 1 µM [%]
1 | Cc1c(O)cc(O)c(C(=O)N2Cc3ccc(CN4CCN(CCOCCOCCOCCOCCNc5cccc6c5C(=O)N(C5CCC(=O)NC5=O)C6=O)CC4)cc3C2)c1OCC1CCCCC1 (stereo not drawn) [Example 6, 4-[2-[2-[2-[2-[2-[4-[[2-[2-(Cyclohexylmethoxy)-4,6-dihydroxy-3-methyl-benzoyl]isoindolin-5-yl]methyl]piperazin-1-yl]ethoxy]ethoxy]ethoxy]ethoxy]ethylamino]-2-(2,6-dioxo-3-piperidyl)isoindoline-1,3-dione] | < 10
2 | Cc1c(O)cc(O)c(C(=O)N2Cc3ccc(CN4CCN(CCOCCOCCOCCOCCOc5cccc6c5C(=O)N(C5CCC(=O)NC5=O)C6=O)CC4)cc3C2)c1OCc1ccccc1 (stereo not drawn) [Example 11, 4-((14-(4-((2-(2-(Benzyloxy)-4,6-dihydroxy-3-methylbenzoyl)isoindolin-5-yl)methyl)piperazin-1-yl)-3,6,9,12-tetraoxatetradecyl)oxy)-2-(2,6-dioxopiperidin-3-yl)isoindoline-1,3-dione] | 10 to 25
3 | Cc1c(O)cc(O)c(C(=O)N2Cc3ccc(CN4CCN(CCOCCOCCOCCOCCOCCNc5cccc6c5C(=O)N(C5CCC(=O)NC5=O)C6=O)CC4)cc3C2)c1OCc1ccccc1 (stereo not drawn) [Example 4, 4-((17-(4-((2-(2-(Benzyloxy)-4,6-dihydroxy-3-methylbenzoyl)isoindolin-5-yl)methyl)piperazin-1-yl)-3,6,9,12,15-pentaoxaheptadecyl)amino)-2-(2,6-dioxopiperidin-3-yl)isoindoline-1,3-dione] | < 10
4 | Cc1c(O)cc(O)c(C(=O)N2Cc3ccc(CN4CCN(CCOCCOCCOCCNc5cccc6c5CN(C5CCC(=O)NC5=O)C6=O)CC4)cc3C2)c1OCc1ccccc1 (stereo not drawn) [Example 15, 3-(4-((2-(2-(2-(2-(4-((2-(2-(Benzyloxy)-4,6-dihydroxy-3-methylbenzoyl)isoindolin-5-yl)methyl)piperazin-1-yl)ethoxy)ethoxy)ethoxy)ethyl)amino)-1-oxoisoindolin-2-yl)piperidine-2,6-dione] | 10 to 25
5 | Cc1c(O)cc(O)c(C(=O)N2Cc3ccc(CN4CCN(CCOCCOCCOCCOc5cccc6c5C(=O)N(C5CCC(=O)NC5=O)C6=O)CC4)cc3C2)c1OCc1ccccc1 (stereo not drawn) [Example 9, 4-(2-(2-(2-(2-(4-((2-(2-(Benzyloxy)-4,6-dihydroxy-3-methylbenzoyl)isoindolin-5-yl)methyl)piperazin-1-yl)ethoxy)ethoxy)ethoxy)ethoxy)-2-(2,6-dioxopiperidin-3-yl)isoindoline-1,3-dione] | 10 to 25

Next, values leading:

Row | remaining activity at 1 µM [%] | Compound
6 | 25 to 50 | Cc1c(O)cc(O)c(C(=O)N2Cc3ccc(CN4CCN(CCOCCOCCOc5cccc6c5C(=O)N(C5CCC(=O)NC5=O)C6=O)CC4)cc3C2)c1OCc1ccccc1 (stereo not drawn) [Example 10, 4-(2-(2-(2-(4-((2-(2-(Benzyloxy)-4,6-dihydroxy-3-methylbenzoyl)isoindolin-5-yl)methyl)piperazin-1-yl)ethoxy)ethoxy)ethoxy)-2-(2,6-dioxopiperidin-3-yl)isoindoline-1,3-dione]
7 | 10 to 25 | Cc1c(O)cc(O)c(C(=O)N2Cc3ccc(CN4CCN(CCOCCOCCOCCOCCNc5cccc6c5C(=O)N(C5CCC(=O)NC5=O)C6=O)CC4)cc3C2)c1OCc1ccccc1 (stereo not drawn) [Example 3, 4-((14-(4-((2-(2-(Benzyloxy)-4,6-dihydroxy-3-methylbenzoyl)isoindolin-5-yl)methyl)piperazin-1-yl)-3,6,9,12-tetraoxatetradecyl)amino)-2-(2,6-dioxopiperidin-3-yl)isoindoline-1,3-dione]
8 | 10 to 25 | Cc1c(O)cc(O)c(C(=O)N2Cc3ccc(C(=O)N4CCC(CN5CCN(c6cc7c(cc6F)C(=O)N(C6CCC(=O)NC6=O)C7=O)CC5)CC4)cc3C2)c1OCc1ccccc1 (stereo not drawn) [Example 23, 5-(4-((1-(2-(2-(Benzyloxy)-4,6-dihydroxy-3-methylbenzoyl)isoindoline-5-carbonyl)piperidin-4-yl)methyl)piperazin-1-yl)-2-(2,6-dioxopiperidin-3-yl)-6-fluoroisoindoline-1,3-dione]
9 | < 10 | Cc1c(O)cc(O)c(C(=O)N2Cc3ccc(CN4CCN(CCOCCOCCOCCOCCNc5ccc6c(c5)C(=O)N(C5CCC(=O)NC5=O)C6=O)CC4)cc3C2)c1OCc1ccccc1 (stereo not drawn) [Example 19, 5-[2-[2-[2-[2-[2-[4-[[2-(2-Benzyloxy-4,6-dihydroxy-3-methyl-benzoyl)isoindolin-5-yl]methyl]piperazin-1-yl]ethoxy]ethoxy]ethoxy]ethoxy]ethylamino]-2-(2,6-dioxo-3-piperidyl)isoindoline-1,3-dione]
10 | < 10 | Cc1ncsc1-c1ccc(CNC(=O)[C@@H]2C[C@@H](O)CN2C(=O)[C@@H](NC(=O)CCCCCC(=O)N2CCN(Cc3ccc4c(c3)CN(C(=O)c3c(O)cc(O)c(C)c3OCC3CCCCC3)C4)CC2)C(C)(C)C)cc1 [Example 26, (2S,4R)-1-[(2S)-2-[[7-[4-[[2-[2-(Cyclohexylmethoxy)-4,6-dihydroxy-3-methyl-benzoyl]isoindolin-5-yl]methyl]piperazin-1-yl]-7-oxo-heptanoyl]amino]-3,3-dimethyl-butanoyl]-4-hydroxy-N-[[4-(4-methylthiazol-5-yl)phenyl]methyl]pyrrolidine-2-carboxamide]
11 | < 10 | Cc1ncsc1-c1ccc(CNC(=O)[C@@H]2C[C@@H](O)CN2C(=O)[C@@H](NC(=O)CCCCCCCCCC(=O)N2CCN(Cc3ccc4c(c3)CN(C(=O)c3c(O)cc(O)c(C)c3OCc3ccccc3)C4)CC2)C(C)(C)C)cc1 [Example 24, (2S,4R)-1-((S)-2-(11-(4-((2-(2-(Benzyloxy)-4,6-dihydroxy-3-methylbenzoyl)isoindolin-5-yl)methyl)piperazin-1-yl)-11-oxoundecanamino)-3,3-dimethylbutanoyl)-4-hydroxy-N-(4-(4-methylthiazol-5-yl)benzyl) pyrrolidine-2-carboxamide]
12 | 10 to 25 | Cc1c(O)cc(O)c(C(=O)N2Cc3ccc(CN4CCN(CCOCCOCCOCCOCCOCCNc5cccc6c5C(=O)N(C5CCC(=O)NC5=O)C6=O)CC4)cc3C2)c1OCC1CCCCC1 (stereo not drawn) [Example 7, 4-[2-[2-[2-[2-[2-[2-[4-[[2-[2-(Cyclohexylmethoxy)-4,6-dihydroxy-3-methyl-benzoyl]isoindolin-5-yl]methyl]piperazin-1-yl]ethoxy]ethoxy]ethoxy]ethoxy]ethoxy]ethylamino]-2-(2,6-dioxo-3-piperidyl)isoindoline-1,3-dione]
